Data: article PMC3472544, “Glycosaminoglycan analogs as a novel anti-inflammatory strategy” (Frontiers in Immunology, 2012)
Blank lines part the entries; values can stand above or below the molecule they belong to.

Columns and labels:
CCL5 = molecular target: T1, CCL5 (Homo sapiens, UniProt P13501); assay: NMR-based CCL5 binding, Kd from 15N-HSQC titration; settings: for selective binding to CCL5 in the NMR screen: 206 compound library, 200 μM, HSQC chemical shift changes; for Kd: determined by protein NMR, pH 3.2, 30°C
T1 construct: made in house
T1 sequence (P13501 24-91): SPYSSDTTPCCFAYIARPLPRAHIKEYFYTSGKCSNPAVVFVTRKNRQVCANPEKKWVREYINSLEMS
Protocol: These molecules were charged, and contained multiple acid groups, such as carboxylates and sulfonates. In addition, many of the molecules were aromatic, to provide some hydrophobicity. The library was pooled into sets containing five compounds and these pools mixed at 200 μM, with an equal concentration of CCL5 at 30°C, and a heteronuclear single quantum coherence (HSQC) spectrum recorded immediately. For pools that induced significant change in the protein chemical shifts, a second round of screening was performed in which each of the five compounds was added individually to the protein solution. […] Dissociation constants were obtained by fitting the recorded chemical shift as a function of increasing ligand concentrations with: (1) δobs=δf+LbΔb −f in which δobs is the observed chemical shift at each point of the titration curve, δf is the chemical shift of the free protein and Δb − f is the difference in chemical shift between free and fully complexed protein.

[1] = system: paw thickness after SRBC challenge; assay: Delayed-type hypersensitivity (DTH) model, SRBC; assay type: in vivo, BALB/c mice; settings: for inhibition of paw swelling: oligosaccharides 10 mg/kg s.c. at −30 min and +8 h, dexamethasone by oral gavage 30 min before challenge, paw thickness at 21 h
Protocol: Female BALB/c mice were immunized with 2 × 10^6 sheep red blood cells (SRBC) by subcutaneous route (s.c.) at the base of the tail. Five days later mice were challenged with an s.c. injection of 2 × 10^6 SRBC into the softpaw of the left hindpaw. The paw thickness was measured 21 h later and the difference calculated based on values obtained before challenge. MHxS, NisS, and StachS were injected s.c. at a dose of 10 mg/kg, 30 min before and 8 h after challenge. Vehicle was 0.02% BSA diluted in PBS. The reference compound, dexamethasone, was diluted in saline and administered by oral gavage 30 min before challenge. Group sizes were 6 for sham and 8 for all other groups.
Figure 5 Inhibition of delayed-type hypersensitivity. Immunization was performed by s.c. administration of SRBC, followed by a challenge in the hindpaw 5 days later. The persulfated oligosaccharides (10 mg/kg) were administered 30 min prior and 8 h after the challenge. Dexamethasone was used as a positive control, and paw thickness was measured 21 h following the challenge. The statistical differences vs. the control group (mice challenged with SRBC and treated with vehicle for the compounds 0.02% BSA diluted in PBS) are shown whenever present and indicated by ^*P <0.05>; ^***P < 0.001. TEXT PRINTED IN THE PICTURE: dexamethasone: 47% *** | MHxS: 39% *** | NisS: 20% * | StachS: 41% ***

[2] = system: leukocyte recruitment into the synovial (knee) cavity; assay: Antigen-induced arthritis (AIA) model, mBSA; assay type: in vivo, mice; settings: 50 μg s.c. immediately after mBSA; cells counted at 24 h
Protocol: Induction of disease was performed by injection of 10 μg methylated bovine serum albumin (mBSA) as a 10 μL injection into the synovial cavity. Test compounds, at a total dose of 50 μg were injected in a total volume of 200 μL subcutaneously immediately after mBSA administration. Group sizes were 4–6 animals. Total leukocytes (A), neutrophils (B), and mononuclear cells (C) in the synovial cavity were enumerated 24 h after mBSA injection (Sachs et al., [2011]).
Figure 6 Inhibition of antigen induced arthritis. An injection of mBSA into the synovial cavity was used to induce disease. 50 μg of the inhibitors were administered s.c. immediately after the mBSA injection, and the cells in the synovial cavity were enumerated 24 h later. (A) Total cells; (B) […]; (C) mononuclear cells. ^*P < 0.05.

[3] = system: citrated plasma from healthy human blood donors; assay: Anti-coagulation assay: Activated Partial Thromboplastin Time (APTT); settings: calibrated against heparin standard curve, samples at 1 mg/ml (MHxS 0.1 mg/ml)
Protocol: Activated Partial Thromboplastin Time (APTT) assays were performed by GlycoMar. 10 mg/ml stock solutions of NisS, StachS, and MHxS, were prepared using dH2O and stored at −20°C until use. Samples were tested at 1 mg/ml. All further dilutions were in dH2O. Prior to each assay, a calibration curve of heparin ranging from 0 to 10 IU/ml was prepared using 5th International Standard Heparin. (GlycoMar ID:92, batch 97/578, Expiry 21SEP10). Fresh human blood from healthy human blood donors was collected into S-Monovette Coagulation tubes from Sarstedt. Nine parts of freshly drawn venous blood were collected into one part trisodium citrate (0.106 M). Plasma was obtained by centrifugation at 1500 × g for 10 min. Each of the carbohydrate samples was diluted and tested at 1 mg/ml in the first instance. MHxS was subsequently tested at 0.1 mg/ml to be within the time frame of the standard curve. The APTT assay was run on an ACL 9000 Coagulation Analyzer. The coagulation time of HemosIL Normal Control (cat no. 0020003110) was checked. Samples, standards and controls were mixed 1:10 with citrated plasma in a test tube, loaded into the ACL 9000 carousel and analyzed using the extended APTT run program.

CCL5 binding to heparin = molecular target: T2, CCL5 binding to heparin (Homo sapiens, UniProt P13501); assay: Immobilized heparin competition binding assay ([125I]-CCL5 on heparin-Sepharose beads); settings: [125I]-CCL5 0.05 nM, 4 h, read-out: IC50 for the inhibition of CCL5 binding to heparin
T2 sequence (P13501 24-91): T1 sequence (P13501 24-91)
Protocol: Competition experiments were performed as described elsewhere (Severin et al., [2010]). Briefly, heparin-Sepharose beads (Sepharose beads or binding buffer as a background control) and increasing amounts of antagonist were added to each well of a 96 well filter plate. [^125I]-CCL5, was added last, to reach a final concentration of 0.05 nM. The plates were incubated on a shaker at room temperature for 4 h. Each experiment was performed in triplicate, and the results are given as the mean of the three assays.

CCR5 [4] = molecular target: T3, CCR5 (Homo sapiens, UniProt P51681); assay: Equilibrium competition receptor binding assay with CCL3 as the ligand, CCR5; settings: data not shown
T3 construct: expressed in transfected cells; host or cells: CHO
Protocol: (§1) The assays were carried out on membranes from CHO transfectants expressing CCR1 or CCR5, as described previously (Severin et al., [2010]). Briefly, serial dilutions of the compounds were prepared in binding buffer (50 mM TrisHCl, pH 7.2, containing 1 mM CaCl2, 5 mM MgCl2, and 0.5% BSA). Equal volumes of membrane preparation at 80 μg/ml and scintillation proximity assay (SPA) beads were mixed before adding them to a 96 well filter plate, giving a final membrane concentration in the assay of 20 μg/ml. ^125I labeled chemokines were dissolved in binding buffer at a concentration of 0.4 nM. […] The plates were incubated for 4 h. Radioactivity was counted with a beta counter for 1 min/well and the data analyzed using Graphpad Prism software. The radioligand was stored at −20°C and was used until the cpm of bound chemokine was ≥ 300 cpm.
(§2) A study of the relative affinity of Molecule 1 toward CCL5 and heparin molecules was first evaluated by competition experiments in which CCL5, immobilized on heparin beads, was competed off the beads by increasing concentrations of Molecule 1. […] Since the principal GAG binding motif of CCL5, the BBXB motif on the 40s loop, plays a role in binding to CCR1, we determined the capacity of Molecule 1 to inhibit the binding of the chemokine CCL5 to its receptors CCR1 and CCR5 using equilibrium competition binding with a SPA-based assay.

CCR1 (Homo sapiens) = molecular target: T4, CCR1 (Homo sapiens); assay: Equilibrium competition receptor binding assay (SPA), [125I]-CCL5 on CHO/CCR1 membranes; settings: [125I]-CCL5 0.1 nM, CHO/CCR1 membranes, SPA; read-out: IC50 for the inhibition of CCL5 binding to CCR1
T4 construct: expressed in transfected cells; host or cells: CHO
Protocol: The assays were carried out on membranes from CHO transfectants expressing CCR1 or CCR5, as described previously (Severin et al., [2010]). Briefly, serial dilutions of the compounds were prepared in binding buffer (50 mM TrisHCl, pH 7.2, containing 1 mM CaCl2, 5 mM MgCl2, and 0.5% BSA). Equal volumes of membrane preparation at 80 μg/ml and scintillation proximity assay (SPA) beads were mixed before adding them to a 96 well filter plate, giving a final membrane concentration in the assay of 20 μg/ml. ^125I labeled chemokines were dissolved in binding buffer at a concentration of 0.4 nM. The assay was started by the addition of 25 μL [^125I]-CCL5 to give a concentration of 0.1 nM, in a final assay volume of 100 μL. The plates were incubated for 4 h. Radioactivity was counted with a beta counter for 1 min/well and the data analyzed using Graphpad Prism software. The radioligand was stored at −20°C and was used until the cpm of bound chemokine was ≥ 300 cpm.

[5] = system: CCL5-induced cellular recruitment into the peritoneal cavity; assay: CCL5-induced peritoneal cellular recruitment; assay type: in vivo, mouse; settings: CCL5 binders administered 30 min prior to CCL5 (Figure 4A, B)
CCR5 [6] = molecular target: T5, CCR5 (Homo sapiens, UniProt P13501); assay: Equilibrium competition receptor binding assay (SPA), [125I]-CCL5 on CHO/CCR5 membranes; settings: SPA-based equilibrium competition binding
T5 construct: expressed in transfected cells; host or cells: CHO
T5 sequence (P13501 24-91): T1 sequence (P13501 24-91)
Protocol: Briefly, serial dilutions of the compounds were prepared in binding buffer (50 mM TrisHCl, pH 7.2, containing 1 mM CaCl2, 5 mM MgCl2, and 0.5% BSA). […] The plates were incubated for 4 h. Radioactivity was counted with a beta counter for 1 min/well and the data analyzed using Graphpad Prism software. The radioligand was stored at −20°C and was used until the cpm of bound chemokine was ≥ 300 cpm.

CCR1 = molecular target: T6, CCR1 (Homo sapiens, UniProt P32246); assay: Equilibrium competition receptor binding assay with CCL3 as the ligand, CCR1; settings: data not shown
T6 construct: expressed in transfected cells; host or cells: CHO
T6 sequence (P32246 1-355): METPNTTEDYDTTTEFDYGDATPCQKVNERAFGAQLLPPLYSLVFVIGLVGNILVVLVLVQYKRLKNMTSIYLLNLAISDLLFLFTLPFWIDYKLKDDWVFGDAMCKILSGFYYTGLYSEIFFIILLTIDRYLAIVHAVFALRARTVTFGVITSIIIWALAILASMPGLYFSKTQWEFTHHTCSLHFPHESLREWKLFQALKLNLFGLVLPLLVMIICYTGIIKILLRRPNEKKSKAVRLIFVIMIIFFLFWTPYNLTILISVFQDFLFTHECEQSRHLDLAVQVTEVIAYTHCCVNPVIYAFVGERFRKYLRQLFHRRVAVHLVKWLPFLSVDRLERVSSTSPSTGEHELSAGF
Protocol: as §1, §2

T3 sequence (P51681 whole entry, species assumed): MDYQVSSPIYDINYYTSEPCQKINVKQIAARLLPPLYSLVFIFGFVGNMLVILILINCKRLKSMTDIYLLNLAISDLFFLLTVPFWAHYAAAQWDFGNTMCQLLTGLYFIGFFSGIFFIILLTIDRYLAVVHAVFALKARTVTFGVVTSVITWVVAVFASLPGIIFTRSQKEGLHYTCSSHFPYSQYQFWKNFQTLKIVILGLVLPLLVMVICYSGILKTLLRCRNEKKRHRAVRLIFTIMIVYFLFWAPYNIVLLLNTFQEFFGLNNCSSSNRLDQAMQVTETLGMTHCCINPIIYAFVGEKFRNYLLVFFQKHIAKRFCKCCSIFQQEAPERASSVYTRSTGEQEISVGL

Molecule: O=C(O)c1cc(S(=O)(=O)O)c(O)cc1O [Molecule 11]
Kd (CCL5): < 10 µM

Molecule: O=C(O)c1c(O)c(S(=O)(=O)O)cc(S(=O)(=O)O)c1O [Molecule 12]
Kd (CCL5): 1 to 5 µM

Molecule: O=C(O)c1ccccc1O [Molecule 4]
Kd (CCL5): 350 µM

Molecule: O=S(=O)(O)c1ccccc1O [Molecule 13]
Kd (CCL5): 50 µM

Molecule: C[C@@H]1C[C@H]2[C@@H]3CCC4=CC(=O)C=C[C@]4(C)[C@@]3(F)[C@@H](O)C[C@]2(C)[C@@]1(O)C(=O)CO [dexamethasone, reference compound]
inhibition of paw swelling [1]: 47%

Molecule: persulfated Nis [NisS]
inhibition of paw swelling [1]: 20%
mononuclear cell recruitment into the knee cavity [2]: statistically significant reduction
neutrophil recruitment into the knee cavity [2]: statistically significant reduction
Anticoagulant activity (heparin-equivalent) [3]: 6.87 ± 3.22 IU/mg
IC50 (CCL5 binding to heparin): 5.89 ± 0.04 µM

Molecule: CC(=O)Nc1ccc(S(=O)(=O)Nc2cc(C(=O)O)c(O)c(S(=O)(=O)O)c2)cc1 [Molecule 16]
Kd (CCL5): 40 µM

Molecule: Nc1ccc(O)c(S(=O)(=O)O)c1 [Molecule 6]
Kd (CCL5): 500 µM

Molecule: Nc1cc(C(=O)O)c(O)c(S(=O)(=O)O)c1 [Molecule 7]
Kd (CCL5): 35 µM

Molecule: CC(=O)Nc1cc(C(=O)O)c(O)c(S(=O)(=O)O)c1 [Molecule 8]
selective binding to CCL5 in the NMR screen (CCL5): confirmed to be selectively binding to CCL5
Kd (CCL5): 20 µM

Molecule: O=S(=O)(O)c1cc(O)ccc1O [Molecule 5]
Kd (CCL5): > 500 µM

Further lines, with some results ahead:

Kd (CCL5): 18 µM
Molecule: O=C(O)c1c(O)ccc(S(=O)(=O)O)c1O [Molecule 10]
selective binding to CCL5 in the NMR screen (CCL5): confirmed to be selectively binding to CCL5

Kd (CCL5): 300 µM
Molecule: O=C(O)c1cc(NS(=O)(=O)c2ccc([N+](=O)[O-])cc2)cc(S(=O)(=O)O)c1O [Molecule 9]

Kd (CCL5): < 1 µM
Molecule: O=C(O)c1cc(S(=O)(=O)Nc2cc(C(=O)O)c(O)c(S(=O)(=O)O)c2)ccc1O [Molecule 14]

IC50 (CCL5 binding to heparin): 18.6 ± 4.34 µM
Molecule: persulfated Stach [StachS]
reduction of paw thickness compared with dexamethasone ([1]; 10 mg/kg s.c. at −30 min and +8 h): comparable effect
inhibition of paw swelling [1]: 41%
Anticoagulant activity (heparin-equivalent) [3]: 6.90 ± 2.69 IU/mg

Kd (CCL5): 20 µM
competition of CCL3 binding to CCR5 (CCR5 [4]): no competition
IC50 (CCR1 (Homo sapiens)): 6.7 µM
IC50 (CCL5 binding to heparin): 320 µM
effect on CCL5 binding to CCR5 (CCR5 [6]): no effect
competition of CCL3 binding to CCR1 (CCR1): no competition
Molecule: O=C(O)c1cc(S(=O)(=O)O)ccc1O [Molecule 1]
selective binding to CCL5 in the NMR screen (CCL5): confirmed to be selectively binding to CCL5
cell recruitment to the peritoneum [5]: inhibited cell recruitment to the peritoneum in a dose dependent manner
